Assay results from US8410302B2, “Methoxyimino compounds and fungicide composition comprising same” (Kyung Nong Corporation, priority 2007, dated 2013).

Tests used:
[1] = tested on: Rhizoctonia solani AG-1; assay: Fungicidal activity against rice sheath blight (RSB) disease, control value; conditions: Rhizoctonia solani, AG1, in Oryza sativa, read-out: RSB control value (C.V.)
[2] = tested on: Pyricularia oryzae Carvara KA301; assay: whole plant or invertebrate; assay type: in vivo; conditions: Pyricularia oryzae, read-out: RCB control value (C.V.)
[3] = tested on: Erysiphae graminis; assay: Fungicidal activity against barley powdery mildew (BPM) disease, control value; assay type: in vivo; conditions: 168 h, read-out: BPM control value (C.V.)
[4] = tested on: Phytophthora infestans; assay: whole plant or invertebrate; assay type: in vivo; conditions: Phytophthora infestans, in Solanum lycopersicum, read-out: TLB control value (C.V.)
[5] = tested on: Botrytis cinerae; assay: Fungicidal activity against cucumber gray mold rot (CGM) disease, control value; assay type: in vivo; conditions: Botrytis, read-out: CGM control value (C.V.)
[6] = tested on: Puccinia recondita; assay: Fungicidal activity against wheat leaf rust (WLR) disease, control value; assay type: in vivo; conditions: Puccinia recondita, read-out: WLR control value (C.V.)

Row | SMILES | pest or weed control at 2 ppm [1] [%] | pest or weed control at 10 ppm [1] [%] | pest or weed control at 50 ppm [1] [%] | pest or weed control at 100 ppm [1] [%] | pest or weed control at 2 ppm [2] [%] | pest or weed control at 10 ppm [2] [%] | pest or weed control at 50 ppm [2] [%] | pest or weed control at 100 ppm [2] [%] | pest or weed control at 2 ppm [3] [%] | pest or weed control at 10 ppm [3] [%] | pest or weed control at 50 ppm [3] [%] | pest or weed control at 100 ppm [3] [%] | pest or weed control at 2 ppm [4] [%] | pest or weed control at 10 ppm [4] [%] | pest or weed control at 50 ppm [4] [%] | pest or weed control at 100 ppm [4] [%] | pest or weed control at 100 ppm [5] [%] | pest or weed control at 2 ppm [6] [%] | pest or weed control at 10 ppm [6] [%] | pest or weed control at 50 ppm [6] [%] | further results
1 | CO/N=C(/C(=O)OC)c1ccccc1COc1ccc(C=C(Br)Br)c(Cl)c1 [Example 81, methyl-(E)-2-(2-((4-(2,2-dibromovinyl)-3-chlorophenoxy)methyl)phenyl)-2-methoxyiminoacetate] | 55 | 98 | 100 | 100 | 70 | 90 | 100 | 100 | 98 | 100 | 100 | 100 | 60 | 90 | 98 | 100 | 60 | 95 | 100 | 100 | pest or weed control at 100 ppm [6]: 100%
2 | CNC(=O)/C(=N/OC)c1ccccc1COc1ccc(C=C(Br)Br)c(Cl)c1 [Example 82, (E)-2-(2-((4-(2,2-dibromovinyl)-3-chlorophenoxy)methyl)phenyl)-2-methoxyimino-N-methylacetamide] | 70 | 90 | 99 | 100 | 70 | 90 | 100 | 100 | 5 | 90 | 95 | 95 | – | 30 | 90 | 90 | 0 | 98 | 100 | 100 | pest or weed control at 100 ppm [6]: 100%
3 | CCOc1cc(C=C(Br)Br)ccc1OCc1ccccc1/C(=N\OC)C(=O)OC [Example 83, methyl-(E)-2-(2-((4-(2,2-dibromovinyl)-2-ethoxyphenoxy)methyl)phenyl)-2-methoxyiminoacetate] | 75 | 98 | 100 | 100 | 50 | 90 | 100 | 100 | 95 | 100 | 100 | 100 | 70 | 90 | 98 | 100 | 50 | 95 | 100 | 100 | pest or weed control at 100 ppm [6]: 100%
4 | CCOc1cc(C=C(Br)Br)ccc1OCc1ccccc1/C(=N\OC)C(=O)NC [Example 84, (E)-2-(2-((4-(2,2-dibromovinyl)-2-ethoxyphenoxy)methyl)phenyl)-2-methoxyimino-N-methylacetamide] | 55 | 98 | 100 | 100 | 30 | 90 | 100 | 100 | 90 | 100 | 100 | 100 | 70 | 90 | 98 | 100 | 70 | 95 | 100 | 100 | pest or weed control at 100 ppm [6]: 100%
5 | CO/N=C(/C(=O)OC)c1ccccc1COc1cc(Br)ccc1C=C(Br)Br [Example 85, methyl-(E)-2-(2-((5-bromo-2-(2,2-dibromovinyl)phenoxy)methyl)phenyl)-2-methoxyiminoacetate] | 60 | 85 | 96 | 99 | 70 | 90 | 100 | 100 | 25 | 70 | 97 | 100 | – | 20 | 100 | 100 | 35 | 80 | 99 | 100 | pest or weed control at 100 ppm [6]: 100%
6 | CNC(=O)/C(=N/OC)c1ccccc1COc1cc(Br)ccc1C=C(Br)Br [Example 86, (E)-2-(2-((5-bromo-2-(2,2-dibromovinyl)phenoxy)methyl)phenyl)-2-methoxyimino-N-methylacetamide] | 65 | 98 | 100 | 100 | 30 | 90 | 100 | 100 | 90 | 100 | 100 | 100 | 70 | 90 | 98 | 100 | 40 | 95 | 100 | 100 | pest or weed control at 100 ppm [6]: 100%
7 | OC(c1ccc(Cl)cc1)(c1cncnc1)c1ccccc1Cl (centres unmarked) [Fenarimol, reference compound] | 40 | 85 | 100 | – | – | 0 | 20 | – | 100 | 100 | 100 | – | 75 | 80 | 95 | – | – | 80 | 100 | 100 | pest or weed control at 0.4 ppm [1]: 30%; pest or weed control at 0.4 ppm [3]: 95%; pest or weed control at 0.4 ppm [4]: 65%; pest or weed control at 0.4 ppm ([5]; 0.4 ppm): 7%; pest or weed control at 2 ppm ([5]; 2 ppm): 7%; pest or weed control at 10 ppm ([5]; 10 ppm): 7%; pest or weed control at 50 ppm [5]: 30%; pest or weed control at 0.4 ppm [6]: 15%
8 | CO/N=C(/C(=O)OC)c1ccccc1COc1ccccc1C [Kresoxim-methyl, reference compound] | 90 | 98 | 100 | – | 60 | 95 | 100 | – | 100 | 100 | 100 | – | 80 | 95 | 100 | – | – | 95 | 100 | 100 | pest or weed control at 0.4 ppm [1]: 67%; pest or weed control at 0.4 ppm [2]: 30%; pest or weed control at 0.4 ppm [3]: 95%; pest or weed control at 0.4 ppm [4]: 30%; pest or weed control at 50 ppm [5]: 30%; pest or weed control at 0.4 ppm [6]: 85%
